Laboratory results from patent publication US20100197760A1, “DISUBSTITUTED PHENYLPYRROLIDINES AS MODULATORS OF CORTICAL CATECHOLAMINERGIC NEUROTRANSMISSION” (NSAB, FILIAL AF NEUROSEARCH SWEDEN AB, SVERIGE, priority 2007, published 2010).
Where a name gives a salt, the structure may show the parent alone.

Test system: extracellular levels of dopamine, norepinephrine and serotonin in striatum and prefrontal cortex
Assay: not given
Details: literature statement (Pliszka, 2005); cited from earlier work

Row | SMILES | cortical DA and NE levels
1 | CNCC[C@@H](Oc1ccccc1C)c1ccccc1 [atomoxetine] | regionally selective increases in cortical DA and NE

Test system: DOPAC levels (3,4-dihydroxyphenylacetic acid) in the rat striatum
Assay: not given
Details: 100 μmol/kg s.c., data taken from Table 2 in Ref 1 (J. Med. Chem. 1994, 37, 2735); cited from earlier work

Row | SMILES | DOPAC %-increase
2 | CCCN1CCC[C@@H](c2cccc(S(C)(=O)=O)c2)C1 [Example 16 of ref. 1] | +150^2%

Test system: not given
Assay: not given
Details: not given

Row | SMILES | melting point
3 | Clc1ccc(C2CCNC2)cc1Cl (stereo not drawn) (as salt: hydrochloric acid salt) [Example 1, 3-(3,4-DICHLOROPHENYL)PYRROLIDINE] | 136 to 137 °C
4 | CN1CCC(c2ccc(F)c(F)c2)C1 (stereo not drawn) (as salt: fumaric acid salt) [Example 4, 3-(3,4-DIFLUOROPHENYL)-1-METHYLPYRROLIDINE] | 140 to 142 °C
5 | Fc1cc(F)cc(C2CCNC2)c1 (stereo not drawn) (as salt: oxalic acid salt) [Example 3, 3-(3,5-DIFLUOROPHENYL)PYRROLIDINE] | 199 to 200 °C
6 | Fc1ccc(C2CCNC2)c(F)c1 (stereo not drawn) (as salt: oxalic acid salt) [Example 2, 3-(2,4-DIFLUOROPHENYL)PYRROLIDINE] | 116 °C
7 | Fc1ccc(C2CCNC2)cc1F (stereo not drawn) (as salt: hydrochloric acid salt) [Example 5, 3-(3,4-DIFLUOROPHENYL)PYRROLIDINE] | 139 to 140 °C

Test system: DOPAC levels (3,4-dihydroxyphenylacetic acid) in the rat striatum
Assay: In vivo neurochemistry: tissue content of DOPAC in rat striatum
Design: species or system rat (male Sprague-Dawley)
Details: 100 μmol/kg s.c., 60 min after administration, %-increase from control value
Procedure: The measurement of the tissue content of DOPAC is well established in the field of research since the 1960's. In short, male Sprague-Dawely rats are administered the test compound 60 minutes prior to decapitation. The brain is rapidly taken out and dissected. The striatum is rapidly frozen and subsequently quantitatively analysed with respect to its content of DOPAC by means of HPLC and electrochemical detection. The number of animals used for each test compound/vehicle is 4/group.
Male Sprague-Dawley rats weighing 220-320 g are used throughout the experiments. Sixty (60) minutes following administration of the test substance, the rats are decapitated. Directly after decapitation the brain is removed from the skull and put on a glass petri bowl filled with ice. The limbic system (containing the nucleus accumbens—both the core and shell, most parts of the olfactory tubercle and ventral pallidum) is dissected using two thin, angled tweezers and put directly on foil on dry ice (carbon dioxide −78° C.). The striatum and cortex are then dissected and also put on dry ice. The time from decapitation until the last tissue is dissected varies from four to six minutes. The tissue is weighed using a Sartorius BP3105 connected to a computer and packed in labelled tin foil, then stored in an −80° C. freezer. Great care is taken in order to keep the tissue frozen until the time of neurochemical analysis. Each brain part is subsequently analyzed with respect to its content of monoamines and their metabolites.
The monoamine transmitter substances (NE (norepinephrine), DA (dopamine), 5-HT (serotonin)) as well as their amine (NM (normethanephrine), 3-MT (3-methoxytyramine)) and acid (DOPAC (3,4-dihydroxyphenylacetic acid), 5-HIAA (5-hydroxyindoleacetic acid), HVA (homovanillic acid)) metabolites are quantified in brain tissue homogenates by HPLC separations and electrochemical detection.
The analytical method is based on two chromatographic separations dedicated for amines or acids. Two chromatographic systems share a common auto injector with a 10-port valve and two sample loops for simultaneous injection on the two systems. Both systems are equipped with a reverse phase column (Luna C18(2), dp 3 μm, 50*2 mm i.d., Phenomenex) and electrochemical detection is accomplished at two potentials on glassy carbon electrodes (MF-1000, Bioanalytical Systems, Inc.). The column effluent is passed via a T-connection to the detection cell or to a waste outlet. This is accomplished by two solenoid valves, which block either the waste or detector outlet. By preventing the chromatographic front from reaching the detector, better detection conditions are achieved. The aqueous mobile phase (0.4 ml/min) for the acid system contains citric acid 14 mM, sodium citrate 10 mM, MeOH 15% (v/v) and EDTA 0.1 mM. Detection potentials relative to Ag/AgCl reference are 0.45 and 0.60V. The aqueous ion pairing mobile phase (0.5 ml/min) for the amine system contains citric acid 5 mM, sodium citrate 10 mM, MeOH 9% (v/v), MeCN 10.5% (v/v), decane sulfonic acid 0.45 mM, and EDTA 0.1 mM. Detection potentials relative to Ag/AgCl reference are 0.45 and 0.65V.

Row | SMILES | DOPAC %-increase
8 | Fc1ccc(C2CCNC2)c(F)c1 (stereo not drawn) [Example 2, 3-(2,4-DIFLUOROPHENYL)PYRROLIDINE] | −22%
9 | Fc1cc(F)cc(C2CCNC2)c1 (stereo not drawn) [Example 3, 3-(3,5-DIFLUOROPHENYL)PYRROLIDINE] | −19%
10 | Fc1ccc(C2CCNC2)cc1F (stereo not drawn) [Example 5, 3-(3,4-DIFLUOROPHENYL)PYRROLIDINE] | −37%
11 | CCCN1CCC(c2ccc(Cl)c(C(F)(F)F)c2)CC1 [Example 9 of WO01/46146, 4-(4-chloro-3-trifluoromethyl-phenyl)-1-propyl-piperidine, reference compound] | +94%
12 | Clc1ccc(C2CCNC2)cc1Cl (stereo not drawn) [Example 1, 3-(3,4-DICHLOROPHENYL)PYRROLIDINE] | −45%
13 | CCCN1CCC(c2cc(F)cc(C(F)(F)F)c2)CC1 [Example 44 of WO01/46146, 4-(3-fluoro-5-trifluoromethyl-phenyl)-1-propyl-piperidine, reference compound] | +239%
14 | CN1CCC(c2ccc(F)c(F)c2)C1 (stereo not drawn) [Example 4, 3-(3,4-DIFLUOROPHENYL)-1-METHYLPYRROLIDINE] | −20%

Test system: extracellular levels of dopamine, norepinephrine and serotonin in striatum and prefrontal cortex
Assay: In vivo microdialysis in awake, freely moving rats
Design: species or system rat (male Sprague-Dawley)
Details: mirtazapine 10 mg/kg s.c. (FIGS. 21 and 22)

Row | SMILES | extracellular norepinephrine and dopamine, cortex versus striatum
15 | CN1CCN2c3ncccc3Cc3ccccc3C2C1 (stereo not drawn) [mirtazapine] | increase predominantly extracellular norepinephrine and dopamine in the cortex
